From PubChem BioAssay AID328 (DTP/NCI, 2004) come the findings set out here.

For the test, the system named is BDF1 mice, P388 leukemia ip, median survival T/C. In words: NCI In Vivo Anticancer Drug Screen. Data for tumor model P388 Leukemia (intraperitoneal) in B6D2F1 (BDF1) mice. To be noted: endpoint: median survival time, higher = longer survival. The gist of the method:
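Survival ratio, drug arm over vehicle arm, in mice with a transplanted tumour.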

Setting [1] is: dose: 12.5 mg/kg/injection, schedule: Q04DX003 (ip), vehicle: saline with Tween-80.
Where [2] appears, read: dose: 25.0 mg/kg/injection, schedule: Q01DX009 (ip), vehicle: Klucel (hydroxypropylcellulose) (HPC).
The mark [3] stands for this setting: dose: 6.25 mg/kg/injection, schedule: Q04DX003 (ip), vehicle: saline.
[4] abbreviates: dose: 25.0 mg/kg/injection, schedule: Q04DX003 (ip), vehicle: saline.
Where [5] appears, read: dose: 25.0 mg/kg/injection, schedule: Q04DX003 (ip), vehicle: saline with Tween-80.
Setting [6] is: dose: 50.0 mg/kg/injection, schedule: Q04DX003 (ip), vehicle: saline with Tween-80.
Where [7] appears, read: dose: 100.0 mg/kg/injection, schedule: Q04DX003 (ip), vehicle: saline with Tween-80.
Setting [8] is: dose: 25.0 mg/kg/injection, schedule: Q01DX009 (ip), vehicle: saline.
The mark [9] stands for this setting: dose: 50.0 mg/kg/injection, schedule: Q01DX009 (ip), vehicle: saline.
The mark [10] stands for this setting: dose: 100.0 mg/kg/injection, schedule: Q01DX009 (ip), vehicle: saline with Tween-80.
Where [11] appears, read: dose: 200.0 mg/kg/injection, schedule: Q01DX009 (ip), vehicle: saline with Tween-80.
Where [12] appears, read: dose: 200.0 mg/kg/injection, schedule: Q04DX003 (ip), vehicle: saline with Tween-80.
The mark [13] stands for this setting: dose: 400.0 mg/kg/injection, schedule: Q04DX003 (ip), vehicle: saline with Tween-80.

Molecules are shown by their SMILES. “And” between values parts separate entries of the source, which are not always exact repeats. Equal entries are not always repeated. Toxic doses and inconclusive results are not listed.

With `O=NN(CCCl)C(=O)NC1CCC(=O)NC1=O` (stereo not drawn), the T/C is 272 % of control (dose: 3.13 mg/kg/injection, schedule: Q04DX003 (ip), vehicle: saline with Tween-80); 230 % of control (dose: 4.0 mg/kg/injection, schedule: Q04DX003 (ip), vehicle: saline with Tween-80); 230 % of control (dose: 6.0 mg/kg/injection, schedule: Q04DX003 (ip), vehicle: saline with Tween-80); 272 % of control (dose: 6.25 mg/kg/injection, schedule: Q04DX003 (ip), vehicle: saline with Tween-80); 250 % of control (dose: 9.0 mg/kg/injection, schedule: Q04DX003 (ip), vehicle: gum acacia); 230 % of control (dose: 9.0 mg/kg/injection, schedule: Q04DX003 (ip), vehicle: saline with Tween-80). Besides, the T/C under setting [1] is 104 % of control and the T/C (dose: 20.0 mg/kg/injection, schedule: Q04DX003 (ip), vehicle: gum acacia) is 112 % of control.

In the case of `COc1ccccc1NC(=O)N(CCCl)N=O`, the T/C is 110 % of control (dose: 0.1 mg/kg/injection, schedule: Q04DX003 (ip), vehicle: saline with Tween-80); 100 % of control (dose: 0.2 mg/kg/injection, schedule: Q04DX003 (ip), vehicle: saline with Tween-80); 105 % of control (dose: 0.4 mg/kg/injection, schedule: Q04DX003 (ip), vehicle: saline with Tween-80); 110 % of control (dose: 0.8 mg/kg/injection, schedule: Q04DX003 (ip), vehicle: saline with Tween-80).

Turning to `O=NN(CCBr)C(=O)Nc1ccccc1`, the T/C (dose: 4.0 mg/kg/injection, schedule: Q04DX003 (ip), vehicle: Klucel (hydroxypropylcellulose) (HPC)) was 107 % of control; the T/C (dose: 6.5 mg/kg/injection, schedule: Q04DX003 (ip), vehicle: Klucel (hydroxypropylcellulose) (HPC)) is 119 % of control; the T/C (dose: 11.0 mg/kg/injection, schedule: Q01DX009 (ip), vehicle: Klucel (hydroxypropylcellulose) (HPC)) was 150 % of control and 158 % of control; the T/C (dose: 15.0 mg/kg/injection, schedule: Q04DX003 (ip), vehicle: Klucel (hydroxypropylcellulose) (HPC)) was 162 % of control; the T/C (dose: 16.5 mg/kg/injection, schedule: Q01DX009 (ip), vehicle: Klucel (hydroxypropylcellulose) (HPC)) was 166 % of control; the T/C (dose: 16.5 mg/kg/injection, schedule: Q01DX009 (ip), vehicle: saline with Tween-80) was 185 % of control. In addition, the T/C runs as follows: under setting [2], 195 % of control and 215 % of control; (dose: 25.0 mg/kg/injection, schedule: Q01DX009 (ip), vehicle: saline with Tween-80) 200 % of control; (dose: 29.0 mg/kg/injection, schedule: Q04DX003 (ip), vehicle: Klucel (hydroxypropylcellulose) (HPC)) 154 % of control and 168 % of control; (dose: 37.5 mg/kg/injection, schedule: Q01DX009 (ip), vehicle: Klucel (hydroxypropylcellulose) (HPC)) 220 % of control; (dose: 37.5 mg/kg/injection, schedule: Q01DX009 (ip), vehicle: saline with Tween-80) 210 % of control; (dose: 44.0 mg/kg/injection, schedule: Q04DX003 (ip), vehicle: Klucel (hydroxypropylcellulose) (HPC)) 175 % of control and 181 % of control. The T/C runs as follows: (dose: 67.0 mg/kg/injection, schedule: Q04DX003 (ip), vehicle: Klucel (hydroxypropylcellulose) (HPC)) 167 % of control and 185 % of control and 204 % of control; (dose: 100.0 mg/kg/injection, schedule: Q04DX003 (ip), vehicle: Klucel (hydroxypropylcellulose) (HPC)) 121 % of control and 211 % of control; (dose: 150.0 mg/kg/injection, schedule: Q04DX003 (ip), vehicle: Klucel (hydroxypropylcellulose) (HPC)) 175 % of control.

On to `CN1CCN=C1c1ccc(NC(=O)c2ccc(C(=O)Nc3ccc(C4=NCCN4C)cc3)c(N)c2)cc1`, for which the T/C is 150 % of control (dose: 0.5 mg/kg/injection, schedule: Q01DX009 (ip), vehicle: saline with Tween-80); 154 % of control (dose: 1.0 mg/kg/injection, schedule: Q01DX009 (ip), vehicle: saline with Tween-80); 181 % of control (dose: 2.0 mg/kg/injection, schedule: Q01DX009 (ip), vehicle: saline with Tween-80); 154 % of control (dose: 2.0 mg/kg/injection, schedule: Q01DX009 (ip), vehicle: saline); 166 % of control (dose: 3.0 mg/kg/injection, schedule: Q01DX009 (ip), vehicle: saline).

On to `NC(=O)c1cn(C2OC(CO)C(O)C2O)c2ncn3ccnc3c12` (stereo not drawn), for which the T/C by setting is: under setting [3], 118 % of control; under setting [4], 115 % of control; (dose: 100.0 mg/kg/injection, schedule: Q04DX003 (ip), vehicle: saline) 118 % of control.

With `NC(=S)N/N=C\c1ccc(/C=N/NC(N)=S)cc1`, the T/C under setting [5] is 111 % of control, the T/C under setting [6] is 108 % of control and the T/C under setting [7] was 100 % of control.

On to `CCCCCCNP(=O)(N1CC1)N1CC1`, for which the T/C runs as follows: (dose: 16.5 mg/kg/injection, schedule: Q04DX003 (ip), vehicle: saline with Tween-80) 168 % of control; under setting [5], 227 % of control; (dose: 37.5 mg/kg/injection, schedule: Q04DX003 (ip), vehicle: saline with Tween-80) 272 % of control.

For the molecule `CCCC(N=Cc1ccccc1O)C(=O)O.CCCC(N=Cc1ccccc1O)C(=O)O.[Fe]` (stereo not drawn), the T/C runs as follows: (dose: 12.5 mg/kg/injection, schedule: Q01DX009 (ip), vehicle: saline) 86 % of control; under setting [8], 90 % of control; under setting [9], 90 % of control; (dose: 50.0 mg/kg/injection, schedule: Q04DX003 (ip), vehicle: saline) 90 % of control.

Turning to `CN(C)c1ccc(/C=N/Nc2ccc(C(C#N)=C(C#N)C#N)cc2)cc1`, the T/C (dose: 50.0 mg/kg/injection, schedule: Q01DX009 (ip), vehicle: saline with Tween-80) was 101 % of control; the T/C under setting [10] is 89 % of control; the T/C under setting [11] was 86 % of control.

On to `COc1cc2c3cc1Oc1c(OC)c(OC)cc4c1C(Cc1ccc(OC(C)=O)c(c1)Oc1ccc(cc1)CC3N(C)CC2)N(C)CC4` (stereo not drawn), for which the T/C reads like this: under setting [1], 100 % of control; under setting [5], 109 % of control; under setting [6], 100 % of control; under setting [12], 95 % of control; under setting [13], 90 % of control.

Consider `CC(=O)OCC(OC(C)=O)C(OC(C)=O)C(OC(C)=O)C(/C=N/NC(N)=S)=N/NC(N)=S` (stereo not drawn), for which the T/C is 90 % of control (dose: 50.0 mg/kg/injection, schedule: Q01DX009 (ip), vehicle: other); 100 % of control (dose: 100.0 mg/kg/injection, schedule: Q01DX009 (ip), vehicle: other); 95 % of control (dose: 100.0 mg/kg/injection, schedule: Q04DX003 (ip), vehicle: other); 100 % of control (dose: 200.0 mg/kg/injection, schedule: Q01DX009 (ip), vehicle: other); 105 % of control (dose: 200.0 mg/kg/injection, schedule: Q04DX003 (ip), vehicle: other); 120 % of control (dose: 400.0 mg/kg/injection, schedule: Q04DX003 (ip), vehicle: other).

As for `CC(/C=N/N=C(N)N)=N\N=C(N)N`, the T/C reads like this: (dose: 40.0 mg/kg/injection, schedule: Q01DX009 (ip), vehicle: water) 86 % of control; (dose: 60.0 mg/kg/injection, schedule: Q01DX010 (ip), vehicle: water) 88 % of control.

Regarding `COC(OC)c1nc(N)[nH]c(=O)c1Cc1ccc(Br)cc1`, the T/C was 95 % of control under setting [7], 104 % of control under setting [12] and 100 % of control under setting [13].

For `NC(N)=NCCCCC(=O)Nc1ccc(S(N)(=O)=O)cc1`, the T/C reads like this: under setting [8], 97 % of control; under setting [9], 112 % of control; (dose: 100.0 mg/kg/injection, schedule: Q01DX009 (ip), vehicle: saline) 110 % of control.

As for `C/C=C/C[n+]1cccc2ccccc21`, the T/C by setting is: (dose: 6.25 mg/kg/injection, schedule: Q01DX009 (ip), vehicle: Klucel (hydroxypropylcellulose) (HPC)) 86 % of control; under setting [3], 104 % of control; (dose: 12.5 mg/kg/injection, schedule: Q01DX009 (ip), vehicle: Klucel (hydroxypropylcellulose) (HPC)) 90 % of control; (dose: 12.5 mg/kg/injection, schedule: Q04DX003 (ip), vehicle: saline) 104 % of control; under setting [2], 86 % of control; under setting [4], 109 % of control.

In the case of `CC(C)Cc1c[nH]c(=O)[nH]c1=O`, the T/C is 90 % of control under setting [7], 90 % of control under setting [12] and 90 % of control under setting [13].

Consider `CCOC(=O)c1cc2nc3ccccn3c(=O)c2cc1N`, for which the T/C was 100 % of control under setting [10] and 91 % of control under setting [11].
